Experimental data reported in patent publication US6207438A, “Method for preparing a product in particular for preventing and curing skin diseases, and resulting product” (priority 1998, dated 2001).
Several values for one entry are separate records, joined by “and”; a condition that tells them apart may be missing. Equal entries are not always repeated.

Tests used:
5α reductase (5αR) = biological target: T1, 5α reductase (5αR) (Canis lupus familiaris, UniProt A0A8I3NQ64); assay: Inhibitor effect on 5α reductase of dog prostate extract (radio-chemical method); format: biochemical; settings: 0.1 mM
T1 construct: raw extract of dog prostate; from tissue; host or cells: dog prostate, raw extract
T1 sequence (A0A8I3NQ64 1-254): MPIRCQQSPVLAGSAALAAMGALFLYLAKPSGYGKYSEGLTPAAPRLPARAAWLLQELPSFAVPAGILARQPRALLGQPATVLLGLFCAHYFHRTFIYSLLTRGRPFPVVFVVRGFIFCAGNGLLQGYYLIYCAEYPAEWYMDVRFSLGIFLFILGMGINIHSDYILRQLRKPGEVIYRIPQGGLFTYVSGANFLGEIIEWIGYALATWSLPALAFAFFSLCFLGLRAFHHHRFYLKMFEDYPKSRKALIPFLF
Source text: It is known that enzymes of the type 5α reductase (5αR) transform testosterone into 17β-hydrosy-5α-androstan-3-one or […]. This reaction is crucial in the action of androgens. These enzymes are present in the keratinocytes of the epidermis, in the fibroblasts of the dermis, and in the sebaccous glands in particular.
Solutions of the product were created at five times the final concentration used in the reaction, in a citrate-phosphate buffer at 0.1 M and pH=5.6 (buffer used in the 5αR reaction). The 5αR reference inhibitor was finasteride (Chibro-Prosacar®, in 5 mg tablets), and tested at the concentration of 500 μg/ml after dilution in the citrate-phosphate buffer at 0.1 M.
The enzymatic extract used was a raw extract of dog prostate prepared in a tris buffer of 0.1 M/sucrose 20%, pH=7.5. The sample was calibrated in such a way as to transform approximately 0.1 pmole of testosterone with 50 μl of extract (being an arbitrary unit of the enzyme).
The mixtures were incubated for 4 hours at 37° C., then the testosterone and the derivatives formed were extracted by 500 μl of dichloromethane. The fraction of dichloromethane was drawn off, dried under a nitrogen flow, and chromatographed on silica in a dichloromethane/ethyl acetate/methanol system (proportions 85:15:3). The plates obtained were autoradiographed on Kodak MP® films.
The evaluation of the quantity of testosterone transformed was carried out after sectioning the products formed and counting them in liquid scintillation.

Micrococcus kristinae = assay: microbe, parasite or virus in culture; format: cell-based; settings: Rothia kristinae, 48 h, read-out: Factor of increase of the quantity of M. kristinae
Procedure: (§1) Second In Vitro Test Establishing an Effect on Pathogenic and Non-pathogenic Flora
(§2) The effects of an oligosaccharide of a degree of polymerisation close to 10 according to the said first method, and of a chelate of this oligosaccharide+Zn, were evaluated on the non-pathogenic strain Micrococcus kristinae, the pathogenic strain Staphylococcus aureus, and the pathogenic strain Propionibacterium acnes. This latter strain is particularly involved in the irritations occurring in the course of cutaneous acne infections.
(§3) The bacteria are cultured in a saline medium (5.6 g/l of NaCl 2.812 g/l of KH2 PO4), containing pancreatic peptone (5.625 g/l) and extracts of heart/brain (9.843 g/l). The strains M. kristinae and S. aureus are cultured in an aerobic medium, and the strain P. acnes is cultured in an anaerobic medium, either in the presence of 5 g/l of glucose (traditional carbonaceous source) or in the presence of a product according to the invention (oligosaccharide of degree of polymerisation close to 10 alone, or this oligosaccharide forming a chelate with zinc), or in the presence of the medium alone (control cultures). The quantity of bacteria being cultured is evaluated after 48 hours of culturing by turbidimetry at 750 nm.

Propionibacterium acnes = assay: microbe, parasite or virus in culture; format: cell-based; settings: Cutibacterium acnes, 48 h, read-out: Factor of increase of the quantity of P. acnes
Procedure: as §1, §2, §3

Staphylococcus aureus = assay: microbe, parasite or virus in culture; format: cell-based; settings: 48 h, read-out: Factor of increase of the quantity of S. aureus
Procedure: as §1, §2, §3

SMILES	Mean (cpm total) (5α reductase (5αR)) [cpm]	Mean e - T (5α reductase (5αR)) [cpm]	inhibition at 100 µM (5α reductase (5αR)) [%]	cpm ASD (5α reductase (5αR); listed as F)	cpm DHT (5α reductase (5αR); listed as F)	cpm total (5α reductase (5αR); listed as F)	activity at 100 µM (5α reductase (5αR); pH 5.6, enzyme control = 100) [%]	fold induction at 5000 µg/mL (Micrococcus kristinae)	fold induction at 5000 µg/mL (Propionibacterium acnes)	fold induction at 5000 µg/mL (Staphylococcus aureus)
CC(C)(C)NC(=O)[C@H]1CC[C@H]2[C@@H]3CC[C@H]4NC(=O)C=C[C@]4(C)[C@H]3CC[C@]12C [finasteride]	1080	647	85	880 cpm and 748 cpm and 647 cpm	343 cpm and 262 cpm and 359 cpm	1223 cpm and 1010 cpm and 1006 cpm	15	–	–	–
O=C[C@H](O)[C@@H](O)[C@H](O)[C@H](O)CO [glucose]	–	–	–	–	–	–	–	2.2	5.2	1.6
